Experimental data: PubChem BioAssay (NCI)
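Tested at 5 concentrations; 48 h exposure; 96-well plates; endpoints linearly interpolated, else capped at highest concentration. Abbreviation: GI50, concentration required for 50% inhibition of growth. TGI denotes the concentration required for complete inhibition of growth.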

Experiments:
Assay in all cases: NCI-60 cell line screen, 48 h
OVCAR-5 ovarian = system: OVCAR-5 ovarian
NCI-H23 lung = system: NCI-H23 lung
K-562 leukemia = system: K-562 leukemia
CCRF-CEM leukemia = system: CCRF-CEM leukemia
SF-295 CNS = system: SF-295 CNS
SW-620 colon = system: SW-620 colon
NCI-H460 lung = system: NCI-H460 lung
ACHN renal = system: ACHN renal
NCI-H226 lung = system: NCI-H226 lung
CAKI-1 renal = system: CAKI-1 renal
MALME-3M melanoma = system: MALME-3M melanoma
SN12C renal = system: SN12C renal
HOP-92 NSCLC = system: HOP-92 NSCLC
OVCAR-3 ovarian = system: OVCAR-3 ovarian
HCT-15 colon = system: HCT-15 colon
786-0 renal = system: 786-0 renal
M19-MEL melanoma = system: M19-MEL melanoma
IGROV1 ovarian = system: IGROV1 ovarian
KM12 colon = system: KM12 colon
MOLT-4 leukemia = system: MOLT-4 leukemia
A549 NSCLC = system: A549 NSCLC
OVCAR-8 ovarian = system: OVCAR-8 ovarian
HCC-2998 colon = system: HCC-2998 colon
TK-10 renal = system: TK-10 renal
SK-OV-3 ovarian = system: SK-OV-3 ovarian
LXFL 529 NSCLC = system: LXFL 529 NSCLC
NCI-H522 lung = system: NCI-H522 lung
U251 CNS = system: U251 CNS
SK-MEL-2 melanoma = system: SK-MEL-2 melanoma
SNB-19 CNS = system: SNB-19 CNS
UACC-62 melanoma = system: UACC-62 melanoma
A498 renal = system: A498 renal
SF-539 CNS = system: SF-539 CNS
LOX IMVI melanoma = system: LOX IMVI melanoma
DMS 273 small cell lung = system: DMS 273 small cell lung
M14 melanoma = system: M14 melanoma
KM20L2 colon = system: KM20L2 colon
SF-268 CNS = system: SF-268 CNS
XF 498 CNS = system: XF 498 CNS
UACC-257 melanoma = system: UACC-257 melanoma
DLD-1 colon = system: DLD-1 colon
EKVX NSCLC = system: EKVX NSCLC
SNB-75 CNS = system: SNB-75 CNS
COLO 205 colon = system: COLO 205 colon
DMS 114 small cell lung = system: DMS 114 small cell lung
HCT-116 colon = system: HCT-116 colon
OVCAR-4 ovarian = system: OVCAR-4 ovarian
SR leukemia = system: SR leukemia
SNB-78 CNS = system: SNB-78 CNS
SK-MEL-28 melanoma = system: SK-MEL-28 melanoma
HL-60(TB) leukemia = system: HL-60(TB) leukemia
SK-MEL-5 melanoma = system: SK-MEL-5 melanoma
UO-31 renal = system: UO-31 renal
RXF-631 renal = system: RXF-631 renal
RXF 393 renal = system: RXF 393 renal
HOP-18 NSCLC = system: HOP-18 NSCLC
HT29 colon = system: HT29 colon
HOP-62 NSCLC = system: HOP-62 NSCLC
RPMI-8226 leukemia = system: RPMI-8226 leukemia

## CCn1c2ccccc2c2c(-c3ccccc3)cc3c(c21)C(=O)N(c1ccccc1)C3=O
OVCAR-5 ovarian
  TGI: > 100 µM
NCI-H23 lung
  TGI: > 100 µM
K-562 leukemia
  TGI: > 100 µM
CCRF-CEM leukemia
  TGI: > 100 µM
SF-295 CNS
  TGI: > 100 µM
SW-620 colon
  TGI: > 100 µM
NCI-H460 lung
  TGI: > 100 µM
ACHN renal
  TGI: > 100 µM
NCI-H226 lung
  TGI: > 100 µM
CAKI-1 renal
  TGI: > 100 µM
MALME-3M melanoma
  TGI: > 100 µM
SN12C renal
  TGI: > 100 µM
HOP-92 NSCLC
  TGI: 90.5 µM
OVCAR-3 ovarian
  TGI: > 100 µM
HCT-15 colon
  TGI: > 100 µM
786-0 renal
  TGI: > 100 µM
M19-MEL melanoma
  TGI: > 100 µM
IGROV1 ovarian
  TGI: > 100 µM
KM12 colon
  TGI: > 100 µM
MOLT-4 leukemia
  TGI: > 100 µM
A549 NSCLC
  TGI: > 100 µM
OVCAR-8 ovarian
  TGI: > 100 µM
HCC-2998 colon
  TGI: > 100 µM
TK-10 renal
  TGI: > 100 µM
SK-OV-3 ovarian
  TGI: > 100 µM
LXFL 529 NSCLC
  TGI: > 100 µM
NCI-H522 lung
  TGI: > 100 µM
U251 CNS
  TGI: > 100 µM
SK-MEL-2 melanoma
  TGI: > 100 µM
SNB-19 CNS
  TGI: > 100 µM
UACC-62 melanoma
  TGI: > 100 µM
A498 renal
  TGI: > 100 µM
SF-539 CNS
  TGI: > 100 µM
LOX IMVI melanoma
  TGI: > 100 µM
DMS 273 small cell lung
  TGI: > 100 µM
M14 melanoma
  TGI: > 100 µM
KM20L2 colon
  TGI: > 100 µM
SF-268 CNS
  TGI: > 100 µM
XF 498 CNS
  TGI: > 100 µM
UACC-257 melanoma
  TGI: > 100 µM
DLD-1 colon
  TGI: > 100 µM
EKVX NSCLC
  TGI: > 100 µM
SNB-75 CNS
  TGI: > 100 µM
COLO 205 colon
  TGI: > 100 µM
DMS 114 small cell lung
  TGI: > 100 µM
HCT-116 colon
  TGI: > 100 µM
OVCAR-4 ovarian
  TGI: > 100 µM
SR leukemia
  TGI: > 100 µM
SNB-78 CNS
  TGI: > 100 µM
SK-MEL-28 melanoma
  TGI: > 100 µM
HL-60(TB) leukemia
  TGI: > 100 µM
SK-MEL-5 melanoma
  TGI: > 100 µM
UO-31 renal
  TGI: > 100 µM

## COCCOCCOCCOc1cccc2c1C(=O)c1cccc(OCCOCCOCCOC)c1C2=O
RXF-631 renal
  TGI: > 100 µM
NCI-H23 lung
  TGI: > 100 µM
K-562 leukemia
  TGI: > 100 µM
CCRF-CEM leukemia
  TGI: > 100 µM
SF-295 CNS
  TGI: > 100 µM
SW-620 colon
  TGI: > 100 µM
NCI-H460 lung
  TGI: > 100 µM
ACHN renal
  TGI: > 100 µM
CAKI-1 renal
  TGI: > 100 µM
RXF 393 renal
  TGI: > 100 µM
HOP-18 NSCLC
  TGI: > 100 µM
SN12C renal
  TGI: > 100 µM
HOP-92 NSCLC
  TGI: > 100 µM
OVCAR-3 ovarian
  TGI: > 100 µM
HCT-15 colon
  TGI: > 100 µM
786-0 renal
  TGI: > 100 µM
M19-MEL melanoma
  TGI: > 100 µM
IGROV1 ovarian
  TGI: > 100 µM
HT29 colon
  TGI: > 100 µM
MOLT-4 leukemia
  TGI: > 100 µM
A549 NSCLC
  TGI: > 100 µM
OVCAR-8 ovarian
  TGI: > 100 µM
HCC-2998 colon
  TGI: > 100 µM
TK-10 renal
  TGI: > 100 µM
SK-OV-3 ovarian
  TGI: > 100 µM
LXFL 529 NSCLC
  TGI: > 100 µM
U251 CNS
  TGI: > 100 µM
SNB-19 CNS
  TGI: > 100 µM
UACC-62 melanoma
  TGI: > 100 µM
A498 renal
  TGI: > 100 µM
SF-539 CNS
  TGI: > 100 µM
LOX IMVI melanoma
  TGI: > 100 µM
DMS 273 small cell lung
  TGI: > 100 µM
M14 melanoma
  TGI: > 100 µM
KM20L2 colon
  TGI: > 100 µM
XF 498 CNS
  TGI: > 100 µM
UACC-257 melanoma
  TGI: > 100 µM
DLD-1 colon
  TGI: > 100 µM
HOP-62 NSCLC
  TGI: > 100 µM
RPMI-8226 leukemia
  TGI: > 100 µM
EKVX NSCLC
  TGI: > 100 µM
SNB-75 CNS
  TGI: > 100 µM
COLO 205 colon
  TGI: > 100 µM
DMS 114 small cell lung
  TGI: > 100 µM
HCT-116 colon
  TGI: > 100 µM
OVCAR-4 ovarian
  TGI: > 100 µM
SNB-78 CNS
  TGI: > 100 µM
SK-MEL-28 melanoma
  TGI: > 100 µM
HL-60(TB) leukemia
  TGI: > 100 µM
SK-MEL-5 melanoma
  TGI: > 100 µM

## CC([O-])=C1C(=O)c2ccccc2C1=O.CC([O-])=C1C(=O)c2ccccc2C1=O.CC[O-].CC[O-].[Ti+4]
RXF-631 renal
  GI50: > 100 µM
  TGI: > 100 µM
OVCAR-5 ovarian
  GI50: > 100 µM
  TGI: > 100 µM
NCI-H23 lung
  GI50: > 100 µM
  TGI: > 100 µM
K-562 leukemia
  GI50: > 100 µM
  TGI: > 100 µM
CCRF-CEM leukemia
  GI50: > 100 µM
  TGI: > 100 µM
SF-295 CNS
  GI50: > 100 µM
  TGI: > 100 µM
SW-620 colon
  GI50: > 100 µM
  TGI: > 100 µM
NCI-H460 lung
  GI50: > 100 µM
  TGI: > 100 µM
ACHN renal
  GI50: > 100 µM
  TGI: > 100 µM
NCI-H226 lung
  GI50: > 100 µM
  TGI: > 100 µM
CAKI-1 renal
  GI50: 59.5 µM
  TGI: > 100 µM
MALME-3M melanoma
  GI50: > 100 µM
  TGI: > 100 µM
HOP-18 NSCLC
  GI50: > 100 µM
  TGI: > 100 µM
SN12C renal
  GI50: > 100 µM
  TGI: > 100 µM
HOP-92 NSCLC
  GI50: > 100 µM
  TGI: > 100 µM
OVCAR-3 ovarian
  GI50: > 100 µM
  TGI: > 100 µM
HCT-15 colon
  GI50: > 100 µM
  TGI: > 100 µM
786-0 renal
  GI50: > 100 µM
  TGI: > 100 µM
IGROV1 ovarian
  GI50: > 100 µM
  TGI: > 100 µM
HT29 colon
  GI50: > 100 µM
  TGI: > 100 µM
KM12 colon
  GI50: > 100 µM
  TGI: > 100 µM
MOLT-4 leukemia
  GI50: > 100 µM
  TGI: > 100 µM
OVCAR-8 ovarian
  GI50: > 100 µM
  TGI: > 100 µM
HCC-2998 colon
  GI50: > 100 µM
  TGI: > 100 µM
SK-OV-3 ovarian
  GI50: > 100 µM
  TGI: > 100 µM
LXFL 529 NSCLC
  GI50: 87.5 µM
  TGI: > 100 µM
NCI-H522 lung
  GI50: > 100 µM
  TGI: > 100 µM
U251 CNS
  GI50: > 100 µM
  TGI: > 100 µM
SK-MEL-2 melanoma
  GI50: > 100 µM
  TGI: > 100 µM
SNB-19 CNS
  GI50: 44.1 µM
  TGI: > 100 µM
UACC-62 melanoma
  GI50: > 100 µM
  TGI: > 100 µM
A498 renal
  GI50: > 100 µM
  TGI: > 100 µM
SF-539 CNS
  GI50: > 100 µM
  TGI: > 100 µM
LOX IMVI melanoma
  GI50: > 100 µM
  TGI: > 100 µM
DMS 273 small cell lung
  GI50: > 100 µM
  TGI: > 100 µM
M14 melanoma
  GI50: > 100 µM
  TGI: > 100 µM
KM20L2 colon
  GI50: > 100 µM
  TGI: > 100 µM
SF-268 CNS
  GI50: > 100 µM
  TGI: > 100 µM
UACC-257 melanoma
  GI50: > 100 µM
  TGI: > 100 µM
DLD-1 colon
  GI50: > 100 µM
  TGI: > 100 µM
HOP-62 NSCLC
  GI50: > 100 µM
  TGI: > 100 µM
RPMI-8226 leukemia
  GI50: > 100 µM
  TGI: > 100 µM
EKVX NSCLC
  GI50: > 100 µM
  TGI: > 100 µM
SNB-75 CNS
  GI50: > 100 µM
  TGI: > 100 µM
COLO 205 colon
  GI50: 91.7 µM
  TGI: > 100 µM
DMS 114 small cell lung
  GI50: > 100 µM
  TGI: > 100 µM
OVCAR-4 ovarian
  GI50: > 100 µM
  TGI: > 100 µM
SR leukemia
  GI50: > 100 µM
  TGI: > 100 µM
SK-MEL-28 melanoma
  GI50: > 100 µM
  TGI: > 100 µM
HL-60(TB) leukemia
  GI50: > 100 µM
  TGI: > 100 µM
SK-MEL-5 melanoma
  GI50: > 100 µM
  TGI: > 100 µM
UO-31 renal
  GI50: > 100 µM
  TGI: > 100 µM
